Experimental data published in patent publication US20040253728A1, “New method” (priority 2000, published 2004).
*1 amine or outer side, *2 acyl side, *3 side chain or, on linkers, in order; H or OH if unused. Where a SMILES comes first, the peptide text is derived from it. Bridges are numbered along the chain shown (N, C = ends). Roman numbers before positions name the chains, in order. [ ]: non-standard residue; d: D form. Actinocin(9to1) = Cc1c2oc3c(C)ccc(C(=O)[*:1])c3nc-2c(C(=O)[*:2])c(N)c1=O; NMeV = CN[C@H](C(=O)O)C(C)C; Sar = CNCC(=O)O

How the values were obtained:
[1] = tested on: NADH dehydrogenase subunit 4 (ND4); settings: cited from earlier work
[2] = tested on: ρ^0 (143B/206) and ρ^+ (143B) osteosarcoma cells; experiment: Flow cytometric analysis of apoptotic cells (annexin V / propidium iodide); format: cell-based, human; settings: for proapoptotic effect on ρ^0 or ρ^+ cells: agent alone; for apoptosis induced in ρ^0 cells compared with ρ^+ cells (early apoptotic cells, annexin V positive/propidium iodide negative): 16 hours, 0.5 μM staurosporine, 100 ng/ml anti-Fas antibody or 20 ng/ml TNFα plus 100 ng/ml actinomycin D
Description: (§1) A human osteosarcoma-derived cell line, 143B, containing mtDNA (ρ^+), and its mtDNA-less derivative, 143B/206 (ρ^0), were maintained in Dulbecco's Modified Eagle Medium (DMEM)-high glucose ([…]; GibcoBRL, Life Technologies AB, Sweden) containing 10% fetal bovine serum, and 100 IU/ml penicillin-streptomycin (GibcoBRL, Life Technologies AB, Sweden). The 143B/206 ρ^0 cells were additionally supplemented with 1 mM sodium pyruvate (GibcoBRL, Life Technologies AB, Sweden) and 50 μg/ml uridine (Sigma-Aldrich AB, Sweden) as described [King et al, Science 246:500-503 (1989)]. Cells were grown to sub-confluence.
We stained the cells with annexin V and propidium iodide using the Vybrant apoptosis assay kit 2 (Molecular Probes, Leiden, The Netherlands). Flow cytometric analyses were performed on a Beckton Dickinson flow cytometer (FACScan) and the results were analyzed by using the Cell Quest program (Beckton Dickinson).

[3] = tested on: ρ^0 (143B/206) and ρ^+ (143B) osteosarcoma cells; experiment: Measurement of caspase 3 activity; format: cell-based, human; settings: 16 hours; ρ^0 and ρ^+ cells; compared to untreated cells
Description: as §1
Caspase 3 activity was measured by the caspase 3 assay kit (Pharmingen, CA, USA). Briefly, a tetrapeptide labeled with the fluorochrome 7-amino-4-methylcoumarin (AMC) was used as a substrate to identify and quantitate caspase 3 activity. AMC is released from the substrate upon cleavage by caspase-3. Free AMC is quantified in cell lysates by ultraviolet (UV) using an excitation wavelength of 365 nm and an emission wavelength of 460 nm. […] Caspase 3 activity was measured on ρ^0 and ρ^+ cells incubated with 0.5 μM staurosporin (n=3), 100 ng/ml human anti-Fas antibody plus 100 ng/ml actinomycin D (n=3), and 20 ng/ml human recombinant tumour necrosis factor α plus 100 ng/ml actinomycin D (n=3) for 16 hours.

[4] = target: T1, human mtDNA light strand promoter (LSP) transcription (Homo sapiens, UniProt O00411+Q00059); experiment: In vitro run off transcription assay with recombinant mtRNAP, TFAM, TFB1M/TFB2M; format: biochemical; settings: TFAM (2.5 pmol), mtRNAP/TFB1M (400 fmol) or mtRNAP/TFB2M (400 fmol)
T1 construct: 10xHis (N); 6xHis (C); made in house; host or cells: Sf9 insect cells, recombinant baculovirus (pBacPAK9)
Excerpt: Recombinant human mitochondrial RNA polymerase (mtRNAP), TFAM, TFB1M, and TFB2M were expressed in a baculovirus system and purified to homogeneity. The activity of these proteins was studied in vitro by run off transcription assays. The template used was a human mtDNA fragment containing the light strand promoter (LSP) followed by a 200 base pairs long stretch of double-stranded DNA. Neither, mtRNAP, TFAM, TFB1M nor TFB2M did alone initiate transcription from the mtDNA promoter. […] However, specific transcription initiation from LSP was obtained by combining either mtRNAP, TFAM and TFB1M or mtRNAP, TFAM and TFB2M. On the basis of these experiments we conclude that both TFB1M and TFB2M are functional homologues of the previously identified Saccharomyces cerevisiae protein Mtf1.
To investigate the promoter specificity of the transcription reaction, we added a double-stranded oligonucleotide containing only the LSP sequence in a 100-fold surplus to the template DNA. […]
DNA fragments corresponding to base pairs 1-741 (LSP/HSP), 1-477 (LSP) or 499-741 (HSP) of human mtDNA [Anderson et al., Nature 290:457 (1981)] were cloned into pUC18. […] The pellets were dissolved in 10 μl of gel loading buffer (98% formamide, 10 mM EDTA pH 8.0, 0.025% xylene cyanol FF, 0.025% bromophenol blue), heated at 95° C. for 5 min, and analyzed on a 5% denaturing polyacrylamide gel in 1×TBE. […]

T1 sequence (O00411 42-1230): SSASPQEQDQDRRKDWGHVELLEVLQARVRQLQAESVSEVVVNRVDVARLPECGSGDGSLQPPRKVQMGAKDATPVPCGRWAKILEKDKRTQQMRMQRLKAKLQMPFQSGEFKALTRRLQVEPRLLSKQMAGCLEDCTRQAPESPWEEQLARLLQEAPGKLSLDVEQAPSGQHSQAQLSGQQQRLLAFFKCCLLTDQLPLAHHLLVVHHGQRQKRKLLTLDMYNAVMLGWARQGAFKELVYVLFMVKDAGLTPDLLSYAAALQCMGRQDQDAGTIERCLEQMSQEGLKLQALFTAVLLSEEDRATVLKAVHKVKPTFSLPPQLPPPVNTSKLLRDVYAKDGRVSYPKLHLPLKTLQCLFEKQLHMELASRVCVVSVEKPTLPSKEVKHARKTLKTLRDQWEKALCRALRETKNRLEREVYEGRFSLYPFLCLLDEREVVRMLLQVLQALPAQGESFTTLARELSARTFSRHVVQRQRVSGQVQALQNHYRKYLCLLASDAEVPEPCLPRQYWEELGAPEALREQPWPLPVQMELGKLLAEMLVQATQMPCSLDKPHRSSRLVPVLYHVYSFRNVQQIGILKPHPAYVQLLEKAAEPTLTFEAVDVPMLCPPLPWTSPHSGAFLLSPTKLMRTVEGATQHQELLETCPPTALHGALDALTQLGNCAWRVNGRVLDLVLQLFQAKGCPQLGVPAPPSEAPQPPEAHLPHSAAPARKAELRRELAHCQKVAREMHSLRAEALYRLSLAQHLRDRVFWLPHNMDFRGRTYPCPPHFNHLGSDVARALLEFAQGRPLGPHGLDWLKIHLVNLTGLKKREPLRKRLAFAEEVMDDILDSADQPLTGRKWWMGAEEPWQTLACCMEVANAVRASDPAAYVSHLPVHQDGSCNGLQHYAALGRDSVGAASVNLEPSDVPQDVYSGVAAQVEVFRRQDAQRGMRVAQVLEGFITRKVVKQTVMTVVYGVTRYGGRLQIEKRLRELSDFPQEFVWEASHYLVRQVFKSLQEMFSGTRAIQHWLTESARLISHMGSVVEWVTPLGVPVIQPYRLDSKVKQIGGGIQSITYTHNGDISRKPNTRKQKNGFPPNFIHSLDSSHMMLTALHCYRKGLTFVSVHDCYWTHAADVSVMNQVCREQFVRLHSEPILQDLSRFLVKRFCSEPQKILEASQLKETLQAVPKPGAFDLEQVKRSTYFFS
T1 sequence (Q00059 43-246): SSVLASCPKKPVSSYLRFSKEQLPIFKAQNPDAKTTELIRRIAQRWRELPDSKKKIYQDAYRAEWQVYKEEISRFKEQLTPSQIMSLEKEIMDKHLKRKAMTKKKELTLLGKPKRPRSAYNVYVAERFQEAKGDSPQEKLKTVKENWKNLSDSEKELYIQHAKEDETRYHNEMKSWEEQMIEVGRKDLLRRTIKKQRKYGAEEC

Row | Molecule | cell death in the cell population [1] | differentiation in the surviving population [1] | further results
1 | Oligomycine | increase cell death | induce differentiation | –
2 | TNFα | – | – | proapoptotic effect on ρ^0 or ρ^+ cells [2]: no proapoptotic effect
3 | CN[C@@H]1C[C@H]2O[C@@](C)([C@@H]1OC)n1c3ccccc3c3c4c(c5c6ccccc6n2c5c31)C(=O)NC4 [STP, staurosporine] | – | – | apoptosis induced in ρ^0 cells compared with ρ^+ cells (early apoptotic cells, annexin V positive/propidium iodide negative) [2]: more STP-induced apoptosis in cells with mtDNA (ρ^+ cells) than in their mtDNA-less derivatives; induction of caspase 3 activity [3]: significant induction of caspase 3 activity in both ρ^0 and ρ^+ cells
4 | C=C(C)[C@H]1Cc2c(ccc3c2O[C@@H]2COc4cc(OC)c(OC)cc4[C@@H]2C3=O)O1 [Rotenone] | increase cell death | induce differentiation | –
5 | Antimycin A | increase cell death | induce differentiation | –
6 | Cc1c2oc3c(C)ccc(C(=O)N[C@@H]4C(=O)N[C@H](C(C)C)C(=O)N5CCC[C@H]5C(=O)N(C)CC(=O)N(C)[C@@H](C(C)C)C(=O)O[C@@H]4C)c3nc-2c(C(=O)N[C@@H]2C(=O)N[C@H](C(C)C)C(=O)N3CCC[C@H]3C(=O)N(C)CC(=O)N(C)[C@@H](C(C)C)C(=O)O[C@@H]2C)c(N)c1=O [actinomycin D] (I: T[dV]P[Sar][NMeV] / II: T[dV]P[Sar][NMeV]; ester I:1-I:C, II:1-II:C; linker I:N-II:N via Actinocin(9to1)) | – | – | apoptosis induced in ρ^0 cells compared with ρ^+ cells (early apoptotic cells, annexin V positive/propidium iodide negative) [2]: no significant differences in the fraction of apoptotic cells; proapoptotic effect on ρ^0 or ρ^+ cells [2]: proapoptotic effect on both ρ^0 and ρ^+ cells
7 | TFB2M: recombinant human mitochondrial transcription factor B2, homologue of yeast Mtf1, expressed in a baculovirus system (protein) AGRFCILGSEAATRKHLPARNHCGLSDSSPQLWPEPDFRNPPRKASKASLDFKRYVTDRRLAETLAQIYLGKPSRPPHLLLECNPGPGILTQALLEAGAKVVALESDKTFIPHLESLGKNLDGKLRVIHCDFFKLDPRSGGVIKPPAMSSRGLFKNLGIEAVPWTADIPLKVVGMFPSRGEKRALWKLAYDLYSCTSIYKFGRIEVNMFIGEKEFQKLMADPGNPDLYHVLSVIWQLACEIKVLHMEPWSSFDIYTRKGPLENPKRRELLDQLQQKLYLIQMIPRQNLFTKNLTPMNYNIFFHLLKHCFGRRSATVIDHLRSLTPLDARDILMQIGKQEDEKVVNMHPQDFKTLFETIERSKDCAYKWLYDETLEDR | – | – | transcriptional activation compared with TFB1M [4]: at least one order of magnitude greater
